One test deals with recombinant O.lotOBP6. Nature of the test: Fluorescence competitive binding assay with 1-NPN probe. The arrangement: species or system Odontothrips loti. Conditions: for IC50: 1× PBS pH 7.2~7.4, room temperature, triplicates, read-out: IC50 (concentration of ligand halving the initial fluorescence value of 1-NPN). The procedure:
Fluorescence was measured on a F-7000 fluorescence spectrophotometer (Hitachi, Tokyo, Japan) at room temperature with a 1 cm light path quartz cuvette and 10 nm slits for both excitation and emission. The fluorescent probe N-phenyl-1-naphthylamine (1-NPN) was excited at 337 nm, and emission was recorded between 370 and 520 nm. The pure protein was dissolved with 1× PBS (pH 7.2~7.4) at a final concentration of 2 μM. The ligands and 1-NPN were dissolved in methanol at the concentration of 1 mM.
To measure the affinity of 1-NPN to O.lotOBP6, a 2 μM solution of protein in 2 mL 1× PBS was titrated with 1-NPN to final concentrations of 0.25~8 μM. The affinity of ligands was measured by the titration of the O.lotOBP6/1-NPN complex at the concentration of 2 μM by adding ligand to final concentrations of 0.25~10 μM. The dissociation constants of the competitors were calculated by the equation Ki = IC50/(1 + [1-NPN]/K1-NPN), where IC50 is the concentration of ligands halving the initial fluorescence value of 1-NPN, [1-NPN] is the free concentration of 1-NPN, and K1-NPN is the dissociation constant of the complex O.lotOBP6/1-NPN. Experiments were performed in triplicates. GraphPad Prism 7.0 was used to perform nonlinear regression analysis on the standard curve and the dissociation curve.

In the next test the test system is adult O. loti. Put plainly: Y-tube olfactometer choice tests with volatiles. The format is in vivo, Odontothrips loti. Conditions: volatile 10 ng/μL in paraffin oil vs paraffin oil control, chi-square test; for Response of male adult O. loti in Y-tube olfactometer: male adults. As to the method: In the behavioral assays, the female and male adults were reared together, while 3–5 days old female and male adults were collected separately by reproductive morphology. Eleven ligands with high binding affinities to O.lotOBP6/1-NPN complex based on fluorescence binding assays were used in the test. The responses of female and male O. loti to 11 volatiles (Table 3) were measured derived from M. sativa (Liu Y-Q, unpublished data) or semiochemicals previously used in Y-tube olfactometer bioassays. The glass Y-tube consisted of a stem and two arms (10 cm long, 1 cm in diameter) separated from each other at an angle of 75°. Air drawn into the olfactometer was first purified by active charcoal, moistened by distilled water in a gas-washing bottle, and split into two streams, with a flow rate of 50 mL min^−1. Two glass flasks (100 mL) provided test and control odor sources. Connections between the components of the olfactometer apparatus were made with Teflon tubes. Olfactometer experiments were carried out in a dark room at 26 ± 1 °C. Light was provided by a LED light (28 W), which was placed at the Y end of the olfactometer. The volatile sample of 10 ng/μL was dissolved in paraffin oil as the test odor source, with the control sample being paraffin oil. A single O. loti was introduced to the base tube of the Y-tube and observed for 5 min. When the test thrip entered a half-length of either arm of the Y-tube and stayed for 1 min, the choice was recorded. […] After five test thrips were tested, the odor sources were swapped to avoid directional effects in the apparatus. To avoid the effects of travelling residual odors of test thrips, ten test thrips tests were followed by a new Y-tube, which was cleaned with 75% ethanol and oven dried at 60 °C for 30 min. Sixty biological replicates were carried out for each female or male treatment. Results were analyzed by Chi-square test using IBM SPSS 22.

In test [1] the test system is Megalurothrips usitatus adults. Further details: method as in PMID 32246573. Conditions: field trials, cited from earlier work.
Where [2] appears, read: O.lotOBP6/1-NPN complex 2 μM, calculated from IC50, read-out: Ki (dissociation constant, Ki = IC50/(1 + [1-NPN]/K1-NPN)).
The mark [3] stands for this setting: competitive fluorescence binding curves, read-out: Ki (high binding affinities with the O.lotOBP6/1-NPN complex).

We go through 18 compounds from publication PMC10048907, “Antennal Transcriptome Analysis of Olfactory Genes and Characterization of Odorant Binding Proteins in Odontothrips loti (Thysanoptera: Thripidae)” (International Journal of Molecular Sciences, 2023).

Read-outs that look alike come from different tables or passages of the source.

On to `c1ccc(Nc2cccc3ccccc23)cc1` [1-NPN, N-phenyl-1-naphthylamine, reference compound], for which the Kd at recombinant O.lotOBP6 (2 μM protein titrated with 1-NPN 0.25~8 μM, Scatchard equation, read-out: Dissociation constant of recombinant O.lotOBP6 protein to 1-NPN) came to 1.05 µM.

Consider `CC/C=C\CCOC(=O)CCC` [(Z)-3-Hexenyl butyrate], for which, on recombinant O.lotOBP6 (O.lotOBP6/1-NPN complex 2 μM), the IC50 turned out to be 5.58 ± 0.38 µM. Further, the values for the Ki at recombinant O.lotOBP6 (setting [2]) and at recombinant O.lotOBP6 (setting [3]) were 2.3 ± 0.16 µM and < 10 µM, respectively. In the test with adult O. loti, the “Response of male adult O. loti in Y-tube olfactometer” value is on record as “significantly attracted”.

With `CCCCC(CC)CO` (centres unmarked) [2-Ethyl-1-hexanol], the IC50 on recombinant O.lotOBP6 (O.lotOBP6/1-NPN complex 2 μM) was found to be 3.8 ± 0.31 µM. For the same compound, the Ki on recombinant O.lotOBP6 (setting [2]) was 1.57 ± 0.13 µM; on recombinant O.lotOBP6 (setting [3]), < 10 µM.

Turning to `CCCCCCCCC=O` [Nonanal], the IC50 on recombinant O.lotOBP6 (O.lotOBP6/1-NPN complex 2 μM) came out at 1.4 ± 0.09 µM. Also, the values for the Ki at recombinant O.lotOBP6 (setting [2]) and at recombinant O.lotOBP6 (setting [3]) were 0.58 ± 0.04 µM and < 10 µM, respectively.

Turning to `Cc1cc(C(C)(C)C)c(O)c(C(C)(C)C)c1` [Butylated hydroxytoluene], the IC50 at recombinant O.lotOBP6 (O.lotOBP6/1-NPN complex 2 μM) is > 50 µM.

As to `C=CCCC=O` [4-Pentenal], on recombinant O.lotOBP6 (O.lotOBP6/1-NPN complex 2 μM), the IC50 was > 50 µM.

Regarding `Cc1cccc(C)c1` [m-Xylene], the IC50 on recombinant O.lotOBP6 (O.lotOBP6/1-NPN complex 2 μM) stood at 8.41 ± 0.31 µM. Also, the figures for the Ki on recombinant O.lotOBP6 (setting [2]) and on recombinant O.lotOBP6 (setting [3]) were 3.47 ± 0.13 µM and < 10 µM, respectively.

Consider `O=Cc1ccccc1O` [Salicylaldehyde], for which the IC50 at recombinant O.lotOBP6 (O.lotOBP6/1-NPN complex 2 μM) worked out at 1.1 ± 0.01 µM. Moreover, the Ki at recombinant O.lotOBP6 (setting [2]) is 0.45 µM; at recombinant O.lotOBP6 (setting [3]), < 10 µM.

Take `CCCCCCCCCCCCC` [Tridecane]: at recombinant O.lotOBP6 (O.lotOBP6/1-NPN complex 2 μM), the IC50 stood at 2.6 ± 0.44 µM. Besides, the Ki was 1.07 ± 0.18 µM on recombinant O.lotOBP6 (setting [2]) and < 10 µM on recombinant O.lotOBP6 (setting [3]).

In the case of `O=Cc1ccccc1` [Benzaldehyde], the IC50 at recombinant O.lotOBP6 (O.lotOBP6/1-NPN complex 2 μM) came to 1.62 ± 0.12 µM. The Ki on recombinant O.lotOBP6 (setting [2]) is 0.67 ± 0.05 µM; on recombinant O.lotOBP6 (setting [3]) it was < 10 µM.

With `CC(=O)OC/C=C(\C)CC/C=C(\C)CCC=C(C)C` [(2E,6E)-farnesyl acetate], the “Duration of attraction effect” value in test [1] (dose of 60 μg) was “at least 6 days”. Besides, the “Attractiveness to adults compared to the control” value in test [1] is listed as “significantly more attractive”.

As for `CC1=CCC2CC1C2(C)C` (stereo not drawn) [α-Pinene], on recombinant O.lotOBP6 (O.lotOBP6/1-NPN complex 2 μM), the IC50 is > 50 µM.

Consider `CC12CCC(CC1)C(C)(C)O2` [Eucalyptol], for which the IC50 on recombinant O.lotOBP6 (O.lotOBP6/1-NPN complex 2 μM) turned out to be 2.06 ± 0.05 µM. The Ki at recombinant O.lotOBP6 (setting [2]) is 0.85 ± 0.02 µM; on recombinant O.lotOBP6 (setting [3]) it was < 10 µM.

For the compound `COc1ccc(C=O)cc1` [p-Anisaldehyde], on recombinant O.lotOBP6 (O.lotOBP6/1-NPN complex 2 μM), the IC50 is 4.59 ± 0.64 µM. Further, the figures for the Ki on recombinant O.lotOBP6 (setting [2]) and at recombinant O.lotOBP6 (setting [3]) were 1.89 ± 0.26 µM and < 10 µM, respectively.

Turning to `C=C(C)C1CCC(C)C(=O)C1` (centres unmarked) [p-Menth-8-en-2-one], the IC50 on recombinant O.lotOBP6 (O.lotOBP6/1-NPN complex 2 μM) was determined as 0.34 ± 0.03 µM. Further, the Ki at recombinant O.lotOBP6 (setting [2]) is 0.14 ± 0.01 µM; at recombinant O.lotOBP6 (setting [3]), < 10 µM. Moreover, the “Response of female adult O. loti in Y-tube olfactometer” value in the test with adult O. loti (female adults) was “significantly attracted”. Moreover, the “Response of male adult O. loti in Y-tube olfactometer” value in the test on adult O. loti was “significantly attracted”.

As for `CCOC(=O)c1cccnc1` [Ethyl nicotinate], the IC50 on recombinant O.lotOBP6 (O.lotOBP6/1-NPN complex 2 μM) is > 50 µM.

On to `C=CC(C)(O)CCC=C(C)C` (centres unmarked) [Linalool], for which, on recombinant O.lotOBP6 (O.lotOBP6/1-NPN complex 2 μM), the IC50 is 6.92 ± 0.24 µM. Moreover, the Ki on recombinant O.lotOBP6 (setting [2]) is 2.86 ± 0.1 µM; on recombinant O.lotOBP6 (setting [3]) it was < 10 µM.

Take `C=C(C)[C@H]1CC=C(C)CC1` [D-Limonene]: the IC50 at recombinant O.lotOBP6 (O.lotOBP6/1-NPN complex 2 μM) was > 50 µM.
